A word on the MIC: it is the lowest concentration that inhibits growth of the organism. High values mean a need for much substance, low ones inhibition by little substance.

Series [1] has as its system pooled splenocytes. The experiment in a line: Transgenic DR4 murine immunogenicity study (memory response, splenocyte proliferation). The following applies: wild-type LST primed mice, 100 μg rechallenge. The series is classed as in vivo. The method, then:
Twelve female 6-8 week old DR4 transgenic mice (Abb Knockout/Transgenic HLA-DR4; B6.129S2-H2-Ab1tm1GruTg(HLA-DRA/H2-Ea,HLA-DRB1*0401/H2-Eb)1Kito; Taconic Farms, Germantown, N.Y.) were divided into four groups of three each and immunized with 50 μl subcutaneous injections of wild-type LST using one of the following four schemes: (i) initial immunization with 100 μg enzyme in CFA, followed by 100 μg boosts in incomplete Freund's adjuvant (IFA) on days 14 and 28; (ii) initial immunization with 20 μg enzyme in CFA, followed by 20 μg boosts in IFA on days 14 and 28; (iii) initial immunization with 100 μg enzyme in PBS buffer, followed by 100 μg boosts in PBS buffer on days 7, 14, 21 and 28; (iv) initial immunization with 20 μg enzyme in PBS buffer, followed by 20 μg boosts in PBS buffer on days 7, 14, 21 and 28. Serum IgG antibody titers against wild-type LST were measured on days 13, 20, 27, 34, and 62. […] Mice were housed without further manipulation until week 23 of the study, at which time serum IgG antibody titers were again measured and mice were divided into two experimental arms having equivalent average antibody titers. Note that during the week 9 to week 23 recovery period, two mice (the lowest titer 100 μg no adjuvant and one of the high titer 100 μg adjuvant) began suffering hair loss, weight loss, and reduced mobility and were sacrificed as per the IACUC approved protocol. […]

For series [2], the system named is MRSA strain USA400. As to the kind of experiment: S. aureus recurrent bacteremia model, in vivo efficacy. The following applies: 500 μg i.v. The arrangement: species or system DR4 mice. The protocol:
Prior to bacterial challenge, the immune systems of DR4 mice (N=3 per group) were primed 3-times with weekly subcutaneous injections of 100 μg LST^WT or Lib5 variant in sterile phosphate buffered saline (PBS: 2.7 mM KCl, 1.5 mM KH2PO4, 8.9 mM Na2HPO4, 136.9 mM NaCl, pH 7.4). These immunizations and boosts contained no adjuvant. Anti-LST antibody titers were determined as described above. For the first cycle of infection and treatment, mice were challenged with intraperitoneal administration of 2×10^8 CFU Staphylococcus aureus strain USA400 in a 3% suspension of porcine mucin, and one hour later were treated by intravenous tail vein administration of 500 μg of LST^WT or Lib5 variant in sterile PBS. Mice that were rescued by the enzyme treatment underwent subsequent infection and treatment cycles at weekly intervals. To compensate for development of innate murine antibacterial immunity following the first bacterial exposure, mice were challenged with 1×10^9 CFU USA400 in the second and third cycles, but the treatments remained at 500 μg of the appropriate protein. As a control to verify the lethal bacterial dose in each cycle, one mouse was given a sham treatment of PBS.
Using an S. aureus recurrent bacteremia model, the extent to which LST immunogenicity impacted in vivo efficacy was subsequently evaluated. […]

The subject of series [3] is S. aureus 3425-1. As to the kind of experiment: MIC assay. The series is classed as cell-based, Staphylococcus aureus. The following applies: biological duplicates. The protocol: (§1) The MICs of wild-type lysostaphin and its variants were determined by adding 2-fold serial dilutions of enzymes into wells of a polypropylene 96-well plate (Costar 3879) containing ˜40,000 S. aureus SA113 (or S. aureus 6445, 3425-1, 3425-3) cells in Muller Hinton broth (BD) supplemented with 2% NaCl and 0.1% bovine serum albumin, yielding a total volume of 100 μl. Plates were grown overnight at 37° C. with shaking at 900 rpm on an Orbit P4 orbital shaker (Labnet; Edison, N.J.). […] The assay was performed in triplicate for each enzyme.

Series [4] concerns MRSA strain 3425-3. As to the kind of experiment: MIC assay. The series is classed as cell-based, Staphylococcus aureus. The following applies: biological duplicates. The protocol: as §1
Series [5] relates to S. aureus SA113. As to the kind of experiment: MIC assay. The format is cell-based, Staphylococcus aureus. The protocol:
as §1

Series [6] relates to MRSA strain USA400. As to the kind of experiment: Efficacy of F13 in immunized mice, MRSA challenge. The series is classed as in vivo, DR4 HLA transgenic mice. The following applies: 500 μg i.v. 1 h after 2×10^8 MRSA i.p. The method, then: The immunogenicity of the F13 variant was compared to wild-type LST in DR4 HLA transgenic mice, i.e., mice bearing partially humanized immune systems. 100 μg of wild-type LST or variant F13 were mixed with complete Freund's adjuvant and injected subcutaneously into DR4 mice. Fourteen days later, antibody titers were measured by ELISA. Variant F13 yielded more than 200-fold lower antibody titers compared to wild-type LST. To assess the impact of antibody titers on antibacterial efficacy, the mice were challenged with an intraperitoneal injection of 2×10^8 MRSA strain USA400, and 1 hour later the mice were treated with 500 μg wild-type LST, variant F13, or PBS, administered as a single bolus intravenous injection. Both mice receiving PBS sham treatments died as did both mice treated with wild-type LST. In contrast, both mice treated with variant F13 survived. Thus, the reduced immunogenicity of F13 conferred enhanced therapeutic efficacy in vivo.

In turn, “Wild-Type: wild-type lysostaphin (SEQ ID NO:49) produced in P. pastoris; aglycosylated Ser126Pro backbone in the design studies [reference compound]” had a stimulation index in series [1] of 1.8 fold. Also, the rescue from infection result in series [2] (first cycle, 2×10^8 CFU i.p.) is given as “rescued”; in series [2] (second cycle, 10^9 CFU), “failed to rescue any of the three treated mice”. Besides, the “MIC Strain 3425-1” value in series [3] worked out at 0.04 µg/mL. In series [4], the “MIC Strain 3425-3” value amounted to 0.03 µg/mL. The same substance returned an MIC in series [5] (S. aureus SA113, purified enzyme) of 0.0351 µg/mL. Also, the “MIC Strain SA113” value in series [5] (biological duplicates) worked out at 0.02 µg/mL. Besides, in series [6], the survival entry is recorded as “died”.

(Values after patent US11091749B2, “Deimmunized lysostaphin and methods of use” (TRUSTEES OF DARTMOUTH COLLEGE, priority 2014, dated 2021).)
